Reference: patent US8802597B2, “Herbicidal pyrimidines” (E I du Pont de Nemours and Company, priority 2003, dated 2014)

Key:
Test in all cases: Test C pre/postemergence
Assay type in all cases: in vivo
Settings in all cases: Preemergence
soybean (Glycine max) = system: soybean (Glycine max)
From the text: (§1) Seeds or nutlets of plant species selected from bermudagrass (Cynodon dactylon), Surinam grass (Brachiaria decumbens), cocklebur (Xanthium strumarium), corn (Zea mays), crabgrass (Digitaria sanguinalis), woolly cupgrass (Eriochloa villosa), giant foxtail (Setaria faberii), goosegrass (Eleusine indica), johnsongrass (Sorghum halepense), kochia (Kochia scoparia), lambsquarters (Chenopodium album), morningglory (Ipomoea coccinea), eastern black nightshade (Solanum ptycanthum), yellow nutsedge (Cyperus esculentus), pigweed (Amaranthus retroflexus), common ragweed (Ambrosia elatior), soybean (Glycine max), common (oilseed) sunflower (Helianthus annuus), and velvetleaf (Abutilon theophrasti) were planted and treated preemergence with test chemicals formulated in a non-phytotoxic solvent mixture which included a surfactant.
(§2) At the same time, plants selected from these crop and weed species and also winter barley (Hordeum vulgare), blackgrass (Alopecurus myosuroides), canarygrass (Phalaris minor), chickweed (Stellaria media), downy brome (Bromus tectorum), green foxtail (Setaria viridis), Italian ryegrass (Lolium multiflorum), wheat (Triticum aestivum), wild oat (Avena fatua) and windgrass (Apera spica-venti) were treated with postemergence applications of some of the test chemicals formulated in the same manner. Plants ranged in height from 2 to 18 cm (1- to 4-leaf stage) for postemergence treatments. Plant species in the flooded paddy test consisted of rice (Oryza sativa), umbrella sedge (Cyperus difformis), duck salad (Heteranthera limosa) and barnyardgrass (Echinochloa crus-galli) grown to the 2-leaf stage for testing. Treated plants and controls were maintained in a greenhouse for 12 to 14 days, after which time all species were compared to controls and visually evaluated. Plant response ratings, summarized in Table C, are based on a scale of 0 to 100 where 0 is no effect and 100 is complete control. A dash (-) response means no test result.

corn (Zea mays) = system: corn (Zea mays)
From the text: as §1, §2

[1] = system: goosegrass (Eleusine indica)
From the text: as §1, §2

[2] = system: lambsquarters (Chenopodium album)
From the text: as §1, §2

[3] = 31 g ai/ha, scale 0 to 100, 0 no effect, 100 complete control
[4] = 62 g ai/ha, scale 0 to 100, 0 no effect, 100 complete control

Row | Structure (SMILES) | Plant response rating, Soybean (soybean (Glycine max); [3]) | Plant response rating, Soybean (soybean (Glycine max); [4]) | Plant response rating, Soybean (soybean (Glycine max); 125 g ai/ha, scale 0 to 100) | Plant response rating, Soybean (soybean (Glycine max); 250 g ai/ha, scale 0 to 100) | Plant response rating, Corn (corn (Zea mays); [3]) | Plant response rating, Corn (corn (Zea mays); [4]) | Plant response rating, Corn (corn (Zea mays); 125 g ai/ha, scale 0 to 100) | Plant response rating, Corn (corn (Zea mays); 250 g ai/ha, scale 0 to 100) | Plant response rating, Goosegrass [1, 3] | Plant response rating, Goosegrass [1, 4] | Plant response rating, Goosegrass ([1]; 125 g ai/ha, scale 0 to 100) | Plant response rating, Goosegrass ([1]; 250 g ai/ha, scale 0 to 100) | Plant response rating, Lambsquarters [2, 3] | Plant response rating, Lambsquarters [2, 4] | Plant response rating, Lambsquarters ([2]; 125 g ai/ha, scale 0 to 100) | Plant response rating, Lambsquarters ([2]; 250 g ai/ha, scale 0 to 100) | other results
1 | Nc1nc(C2CC2)nc(C=O)c1Br [Compound 26] |  |  |  |  |  |  |  |  |  |  |  |  |  |  |  |  | plant injury at 62 g/ha (soybean (Glycine max); Glycine max, pre-emergence, 62 g ai/ha, scale 0 to 100, 0 no effect, 100 complete control, read-out: Plant response rating, Soybean): 0%; plant injury at 125 g/ha (soybean (Glycine max); Glycine max, pre-emergence, 125 g ai/ha, scale 0 to 100, read-out: Plant response rating, Soybean): 10%; plant injury at 250 g/ha (soybean (Glycine max); Glycine max, pre-emergence, 250 g ai/ha, scale 0 to 100, read-out: Plant response rating, Soybean): 10%; plant injury at 500 g/ha (soybean (Glycine max); Glycine max, pre-emergence, 500 g ai/ha, scale 0 to 100, read-out: Plant response rating, Soybean): 20%; Corn plant response rating (crop injury, 0 = no effect, 100 = complete kill) at 62 g/ha (corn (Zea mays); Zea mays, pre-emergence, 62 g ai/ha, scale 0 to 100, 0 no effect, 100 complete control, read-out: Plant response rating, Corn): 0%; Corn plant response rating (crop injury, 0 = no effect, 100 = complete kill) at 125 g/ha (corn (Zea mays); Zea mays, pre-emergence, 125 g ai/ha, scale 0 to 100, read-out: Plant response rating, Corn): 0%; Corn plant response rating (crop injury, 0 = no effect, 100 = complete kill) at 250 g/ha (corn (Zea mays); Zea mays, pre-emergence, 250 g ai/ha, scale 0 to 100): 0%; Corn plant response rating (crop injury, 0 = no effect, 100 = complete kill) at 500 g/ha (corn (Zea mays); Zea mays, pre-emergence, 500 g ai/ha, scale 0 to 100): 20%; pest or weed control at 62 g/ha ([1]; Eleusine indica, pre-emergence, 62 g ai/ha, scale 0 to 100, 0 no effect, 100 complete control, read-out: Plant response rating, Goosegrass): 0%; pest or weed control at 125 g/ha ([1]; Eleusine indica, pre-emergence, 125 g ai/ha, scale 0 to 100, read-out: Plant response rating, Goosegrass): 0%; pest or weed control at 250 g/ha ([1]; Eleusine indica, pre-emergence, 250 g ai/ha, scale 0 to 100, read-out: Plant response rating, Goosegrass): 0%; pest or weed control at 500 g/ha ([1]; Eleusine indica, pre-emergence, 500 g ai/ha, scale 0 to 100, read-out: Plant response rating, Goosegrass): 0%; pest or weed control at 62 g/ha ([2]; Chenopodium album, pre-emergence, 62 g ai/ha, scale 0 to 100, 0 no effect, 100 complete control, read-out: Plant response rating, Lambsquarters): 10%; pest or weed control at 500 g/ha ([2]; Chenopodium album, pre-emergence, 500 g ai/ha, scale 0 to 100, read-out: Plant response rating, Lambsquarters): 90%
2 | COC(=O)Cc1nc(C2CC2)nc(N)c1Br [Compound 13] | 0 | 60 | 90 | 90 | 0 | 5 | 10 | 30 | 0 | 0 | 0 | 0 | 50 | 85 | 90 | 90 | 
3 | CCOC(=O)C(Cl)c1nc(C2CC2)nc(N)c1Br (centres unmarked) [Compound 31] | 0 | 5 | 15 | 80 | 0 | 0 | 0 | 0 | 0 | 0 | 0 | 20 | 0 | 40 | 40 | 80 | 
4 | CCOC(=O)c1nc(C2CC2)nc(N=CN(C)C)c1Br [Compound 40] |  | 10 | 40 | 90 |  | 0 | 20 | 20 |  | 0 | 0 | 5 |  | 100 | 100 | 100 | Plant response rating, Soybean (soybean (Glycine max); 500 g ai/ha, scale 0 to 100): 95; Plant response rating, Corn (corn (Zea mays); 500 g ai/ha, scale 0 to 100): 40; Plant response rating, Goosegrass ([1]; 500 g ai/ha, scale 0 to 100): 40; Plant response rating, Lambsquarters ([2]; 500 g ai/ha, scale 0 to 100): 100
